ChEMBL document CHEMBL1140399, “Synthesis and evaluation of 3-anilino-quinoxalinones as glycogen phosphorylase inhibitors” (Bioorg Med Chem Lett, 2005)

Legend:
Mus musculus [1] = assay: Blood glucose levels in mice was measured using glucometer after 8 hours of compound administration at 30 mg/kg body weight via oral gavage
Mus musculus [2] = assay: Blood glucose levels in mice was measured using glucometer after 1 hours of compound administration at 30 mg/kg body weight via oral gavage
Mus musculus [3] = assay: Blood glucose levels in mice was measured using glucometer after 0 hours of compound administration at 30 mg/kg body weight via oral gavage
Mus musculus [4] = assay: Blood glucose levels in mice was measured using glucometer after 4 hours of compound administration at 30 mg/kg body weight via oral gavage
Mus musculus [5] = assay: Blood glucose levels in mice was measured using glucometer after 2 hours of compound administration at 30 mg/kg body weight via oral gavage

| SMILES | Blood glucose level (Mus musculus [1]) | Blood glucose level (Mus musculus [2]) | Blood glucose level (Mus musculus [3]) | Blood glucose level (Mus musculus [4]) | Blood glucose level (Mus musculus [5]) |
| --- | --- | --- | --- | --- | --- |
| Cn1c(=O)c(Nc2ccc(C(=O)NCc3cccs3)cc2)nc2cccnc21 | 328.4 | 305.4 | 357.4 | 362.5 | 356 |
| Cn1c(=O)c(Nc2ccc(C(=O)NCc3cccs3)cc2)nc2ccccc21 | 224.9 | 306.4 | 334 | 313.3 | 351.3 |
| CCn1c(=O)c(Nc2ccc(C(=O)NCc3cccs3)cc2)nc2ccccc21 | 325.9 | 349.1 | 320.3 | 383.3 | 338.4 |
